{"source": "patent US8829014B2", "about": "“Thiazole and thiophene analogues, and their use in treating autoimmune diseases and cancers” (Board of Supervisors of Louisiana State University and …, priority 2006, dated 2014)", "format_in_all_cases": "cell-based", "key": {"[1]": {"test_system": "vascular smooth muscle cells (VSMC)", "experiment": "LDH release cytotoxicity in VSMC", "details": "rat, 48 h, 10 μM", "experimental": "(§1) Additional compounds have also been tested for their ability to inhibit both TNF-α-induced NF-κB—expression and PMA-induced AP-1 expression. In both tests, the compound was added for 1 h, then the appropriate inducer was added, and luciferase activity was monitored 24 h later. Values were then normalized to the vehicle control, DMSO. Following the initial luciferase screens, studies were conducted to assess the cytotoxicity of the compounds in normal cells such as VSMC, HUVEC, or HPT cells. Human umbilical vein endothelial cells (HUVEC) represent the normal endothelium, vascular smooth muscle cells (VSMC) were represented by cells from the adult rat aorta, and human proximal tubule (HPT) cells represent the normal proximal tubule in vivo. These cells were grown to near confluency in multi-well plates, and were then treated for 48 h with either vehicle (0.1% DMSO) or 10 μM of each drug candidate. Following treatment, the media from the VSMC and HUVEC incubations were removed, and the amount of lactate dehydrogenase (LDH) released into the medium was determined with a commercial kit. LDH is normally confined to the cytosol, and its release represents “leakiness” of the plasma membrane. LDH activity was expressed as % increase over vehicle-treated cells. In another assay of viability, the treated VSMC and HUVEC were removed by trypsinization and treated with trypan blue, a dye that is taken up only by dead cells. The number of both live and dead cells was counted using an automated cell viability analyzer. The % decrease in numbers of viable cells was determined. Toxicity in the treated HPT cells was determined by the ethidium homodimer (EthHD) uptake assay. EthHD is a fluorescent dye that is excluded from live cells, but is taken up by cells that have lost permeability barriers. Inside the cell, EthHD produces a strong fluorescent signal, which is proportional to the number of dead cells. Results were expressed as a % increase in cell death over vehicle-treated cells. The lead compounds were also tested in two pairs of cell lines from either the skin or prostate, one tumorigenic and one non-tumorigenic, to test for any differences in toxicity or heightened sensitivity in the tumorigenic lines. The cells were treated for 48 h with vehicle (0.1% DMSO) or 10 μM of each drug candidate. Following treatment, the viability of the cells was determined by the MTT assay. In this assay, the MTT dye is converted only in viable cells by intracellular enzymes to a colorimetric product that is quantitated by a microplate reader.\n(§2) For the results in Table 13, cells were grown to near confluency in multi-well plates, then treated for 48 h with either vehicle (0.1% DMSO) or 10 μM of each drug candidate. Following treatment, the media from the VSMC and HUVEC incubations were removed, and the amount of lactate dehydrogenase (LDH) released into the medium was determined with a commercial kit and expressed as a % increase over vehicle-treated cells. HPT toxicity was determined by the ethidium homodimer (EthHD) uptake assay. Inside the cell, EthHD produces a strong fluorescent signal, which is proportional to the amount of cell death, expressed as a % increase in cell death over vehicle-treated cells. The lead compounds were also tested in two pairs of cell lines from the skin or prostate, one tumorigenic and one non-tumorigenic, to test for differing toxicity or heightened sensitivity in the tumorigenic lines. The cells were treated for 48 h with vehicle (0.1% DMSO) or 10 μM of each drug candidate, and the viability of the cells was determined by the MTT assay, expressed as a % decrease in viability compared to vehicle-treated cells. The in vivo inflammation model measured the % inhibition of rat paw edema induced by carageenan injection."}, "[2]": {"test_system": "Human umbilical vein endothelial cells (HUVEC)", "experiment": "LDH release cytotoxicity in HUVEC", "details": "human, 48 h, 10 μM", "experimental": "as §1, §2"}, "[3]": {"test_system": "vascular smooth muscle cells (VSMC)", "experiment": "Trypan blue viability count in VSMC", "details": "rat, 48 h, 10 μM", "experimental": "as §1"}, "[4]": {"test_system": "human proximal tubule (HPT) cells", "experiment": "Ethidium homodimer (EthHD) uptake toxicity assay in HPT cells", "details": "10 μM, 48 h, relative to vehicle", "experimental": "as §1, §2"}, "[5]": {"experiment": "MTT viability in skin cell line pair, tumorigenic and non-tumorigenic", "details": "human"}, "[6]": {"test_system": "FaDu cells", "description": "[…]. Values greater than 1.0 indicate activation, and values less than 1.0 indicate inhibition.) The compounds that inhibited luciferase translation might, potentially, act by generally inhibiting translation, by reducing cell numbers through inhibition of growth or by cell toxicity, or specifically by inhibiting highly cap-dependent translation. To analyze any general effects on cell viability, fourteen compounds were selected that altered luciferase activity (including a few that increased activity) to test for any effects on cell number. An MTT assay was used to monitor compounds for inhibition of cell growth and cell toxicity. The compounds were tested once in a six-point dose-response assay starting at 10 nM and increasing to 3.3 μM. FaDu cells were plated in a 96-well plate for 24 hr before addition of the compounds. Each compound was added in each of six concentrations (10 nM, 30 nM, 100 nM, 330 nM, 1000 nM, and 3300 nM), and each concentration was tested in triplicate. In addition, DMSO was used as a control. After incubating for 24 hr, the cell number was measured using the MTT assay."}}, "note": "Marks after values point to notes of the source that are not given here."}
{"compound": "CNc1nc(C)c(-c2nc3ccccc3c(=O)n2-c2ccc(Cl)cc2)s1", "note": "[Example 244, 2-(4-Methyl-2-methylamino-thiazol-5-yl)-3-(4-chloro-phenyl)-3H-quinazolin-4-one]", "values": [{"measurement": "LDH release % Increase VSMC", "setting": "[1]", "value": "68# %"}, {"measurement": "LDH release % Increase HUVEC", "setting": "[2]", "value": "124# %"}, {"measurement": "Viable Cells % Decrease VSMC", "setting": "[3]", "value": "70# %"}, {"measurement": "Cell Death (EthHD) % Increase HPT", "setting": "[4]", "value": "180# %"}, {"measurement": "cytotoxicity at 48 h, 10 μM", "setting": "[5]; Viability (MTT) % Decrease HaCaT", "value": 25, "unit": "%"}, {"measurement": "cytotoxicity at 48 h, 10 μM", "setting": "[5]; Viability (MTT) % Decrease SRB12-p9", "value": 28, "unit": "%"}]}
{"compound": "Bis-[2-(4-Chloro-phenylamino)-4-benzayl-thiazole-5-yl]-methanone [Example 134]", "values": [{"measurement": "inhibition of cell viability", "setting": "[6]", "value": "~20", "unit": "%"}]}
